Measurements taken from ChEMBL document CHEMBL4270604, “Hedgehog pathway inhibitors of the acylthiourea and acylguanidine class show antitumor activity on colon cancer in vitro and in vivo” (Eur J Med Chem, 2018).
Values belong to the molecule of their own block, whether it stands above or below them.

Experiments:
[1] = in vitro; details: human, Caco-2
Description: Apparent permeability of the compound from apical to basolateral side in human Caco2 cells after 120 mins by LC-MS/MS analysis

[2] = in vitro; details: human, Caco-2; remark: listed apart in the source
Description: Apparent permeability of the compound from apical to basolateral side in human Caco2 cells assessed as drug recovery after 120 mins by LC-MS/MS analysis

[3] = target: T1, CYP2C19 (Homo sapiens, UniProt P33261); experiment: Inhibition of recombinant human CYP2C19 expressed in insect cell microsomes at 10 uM using Luciferin-H EGE as substrate preincubated for 20 mins followed by NADPH addition measured after 30 mins by luminometric method; type: ADME; details: probe Luciferin-H EGE
T1 sequence (P33261 whole entry): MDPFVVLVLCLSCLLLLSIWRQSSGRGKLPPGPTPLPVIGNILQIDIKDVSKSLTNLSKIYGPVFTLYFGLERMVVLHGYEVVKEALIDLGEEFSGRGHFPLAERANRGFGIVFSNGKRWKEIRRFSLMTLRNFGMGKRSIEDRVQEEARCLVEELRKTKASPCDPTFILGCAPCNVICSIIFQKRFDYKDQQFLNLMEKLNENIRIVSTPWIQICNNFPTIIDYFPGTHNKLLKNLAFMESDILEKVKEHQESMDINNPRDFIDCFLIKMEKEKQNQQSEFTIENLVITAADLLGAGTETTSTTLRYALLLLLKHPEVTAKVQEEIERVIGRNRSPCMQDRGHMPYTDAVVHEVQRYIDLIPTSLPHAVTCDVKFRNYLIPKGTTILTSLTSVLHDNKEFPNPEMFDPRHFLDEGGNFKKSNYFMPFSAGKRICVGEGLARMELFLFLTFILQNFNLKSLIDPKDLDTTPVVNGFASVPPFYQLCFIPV

[4] = Inhibition of hedgehog signaling pathway-mediated differentiation of mouse C3H10T1/2 cells assessed as decrease in SAG-induced ALP activity after 6 days by chemiluminescence-based assay; details: C3H 10T1/2, 144 h
[5] = tested on: LS180; experiment: Antiproliferative activity against human LS180 cells after 72 hrs by sulforhodamine-B assay; type: functional, cell-based; details: for IC50: LS180, 72 h
[6] = tested on: HT-1080; experiment: Antiproliferative activity against human HT1080 cells after 72 hrs by sulforhodamine-B assay; type: functional, cell-based; details: for IC50: HT-1080, 72 h
[7] = target: T2, Coelenterazine h 2-monooxygenase (Renilla reniformis, UniProt P27652); experiment: Effect on Renilla reniformis luciferase; type: ADME
T2 sequence (P27652 whole entry): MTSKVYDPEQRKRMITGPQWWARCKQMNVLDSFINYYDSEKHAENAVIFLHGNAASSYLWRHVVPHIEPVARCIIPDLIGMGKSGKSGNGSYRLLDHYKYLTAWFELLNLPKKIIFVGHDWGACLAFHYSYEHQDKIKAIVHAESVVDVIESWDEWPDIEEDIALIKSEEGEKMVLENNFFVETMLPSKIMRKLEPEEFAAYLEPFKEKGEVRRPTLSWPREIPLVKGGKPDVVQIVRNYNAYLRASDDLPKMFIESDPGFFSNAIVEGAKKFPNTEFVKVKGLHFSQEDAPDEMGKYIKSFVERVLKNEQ

[8] = Inhibition of hedgehog signaling pathway in mouse Light2 cells stimulated with 100 nM SAG after 30 hrs by Gli-firefly luciferase reporter gene assay
[9] = organism: Mus musculus; experiment: as above
[10] = organism: Homo sapiens; experiment: Substrate activity at recombinant human P-gp in membrane fraction assessed as increase in ATPase activity at 10 uM by luminescent P-gp-Glo assay relative to control
[11] = target: T3, CYP1A2 (Homo sapiens, UniProt P05177); experiment: Inhibition of recombinant human CYP1A2 expressed in insect cell microsomes at 1 uM using Luciferin-ME as substrate preincubated for 10 mins followed by NADPH addition measured after 30 mins by luminometric method; type: ADME; details: probe Luciferin-ME
T3 sequence (P05177 whole entry): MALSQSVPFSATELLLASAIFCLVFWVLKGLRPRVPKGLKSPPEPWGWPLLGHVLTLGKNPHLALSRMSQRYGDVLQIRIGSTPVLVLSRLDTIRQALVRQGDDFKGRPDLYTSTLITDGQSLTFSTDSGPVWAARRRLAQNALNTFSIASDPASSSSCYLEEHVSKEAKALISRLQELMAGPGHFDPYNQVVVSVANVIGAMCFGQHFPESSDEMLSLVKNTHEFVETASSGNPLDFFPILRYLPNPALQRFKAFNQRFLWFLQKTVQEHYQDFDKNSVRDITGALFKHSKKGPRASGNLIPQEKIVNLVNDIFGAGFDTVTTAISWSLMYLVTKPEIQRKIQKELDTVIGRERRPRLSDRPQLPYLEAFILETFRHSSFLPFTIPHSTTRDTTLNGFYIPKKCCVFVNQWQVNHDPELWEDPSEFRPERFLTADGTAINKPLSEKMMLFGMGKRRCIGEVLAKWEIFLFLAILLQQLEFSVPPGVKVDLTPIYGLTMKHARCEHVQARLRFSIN

[12] = target: T4, CYP3A4 (Homo sapiens, UniProt P08684); experiment: Inhibition of recombinant human CYP3A4 expressed in insect cell microsomes at 1 uM using Luciferin-IPA as substrate preincubated for 10 mins followed by NADPH addition measured after 10 mins by luminometric method; type: ADME; details: probe Luciferin-IPA
T4 sequence (P08684 whole entry): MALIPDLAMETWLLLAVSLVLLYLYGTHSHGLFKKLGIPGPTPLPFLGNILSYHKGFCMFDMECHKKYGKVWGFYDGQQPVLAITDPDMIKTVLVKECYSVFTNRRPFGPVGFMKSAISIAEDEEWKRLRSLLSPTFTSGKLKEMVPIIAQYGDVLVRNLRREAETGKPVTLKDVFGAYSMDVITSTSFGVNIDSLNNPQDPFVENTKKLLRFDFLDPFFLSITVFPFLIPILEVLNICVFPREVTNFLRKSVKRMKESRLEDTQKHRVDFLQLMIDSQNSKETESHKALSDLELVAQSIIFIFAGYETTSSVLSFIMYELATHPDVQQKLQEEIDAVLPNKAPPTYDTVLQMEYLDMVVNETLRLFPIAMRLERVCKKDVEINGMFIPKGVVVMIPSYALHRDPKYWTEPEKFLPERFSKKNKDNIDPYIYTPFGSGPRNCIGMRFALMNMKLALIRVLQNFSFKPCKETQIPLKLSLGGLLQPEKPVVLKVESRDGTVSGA

[13] = target: T3, CYP1A2; experiment: Inhibition of recombinant human CYP1A2 expressed in insect cell microsomes at 5 uM using Luciferin-ME as substrate preincubated for 10 mins followed by NADPH addition measured after 30 mins by luminometric method; type: ADME; details: probe Luciferin-ME
[14] = target: T3, CYP1A2; experiment: Inhibition of recombinant human CYP1A2 expressed in insect cell microsomes at 10 uM using Luciferin-ME as substrate preincubated for 10 mins followed by NADPH addition measured after 30 mins by luminometric method; type: ADME; details: probe Luciferin-ME
[15] = target: T4, CYP3A4; experiment: Inhibition of recombinant human CYP3A4 expressed in insect cell microsomes at 5 uM using Luciferin-IPA as substrate preincubated for 10 mins followed by NADPH addition measured after 10 mins by luminometric method; type: ADME; details: probe Luciferin-IPA
[16] = target: T4, CYP3A4; experiment: Inhibition of recombinant human CYP3A4 expressed in insect cell microsomes at 10 uM using Luciferin-IPA as substrate preincubated for 10 mins followed by NADPH addition measured after 10 mins by luminometric method; type: ADME; details: probe Luciferin-IPA
[17] = target: T5, CYP2C9 (Homo sapiens, UniProt P11712); experiment: Inhibition of recombinant human CYP2C9 expressed in insect cell microsomes at 1 uM using Luciferin-H as substrate preincubated for 30 mins followed by NADPH addition measured after 30 mins by luminometric method; type: ADME; details: probe Luciferin-H
T5 sequence (P11712 whole entry): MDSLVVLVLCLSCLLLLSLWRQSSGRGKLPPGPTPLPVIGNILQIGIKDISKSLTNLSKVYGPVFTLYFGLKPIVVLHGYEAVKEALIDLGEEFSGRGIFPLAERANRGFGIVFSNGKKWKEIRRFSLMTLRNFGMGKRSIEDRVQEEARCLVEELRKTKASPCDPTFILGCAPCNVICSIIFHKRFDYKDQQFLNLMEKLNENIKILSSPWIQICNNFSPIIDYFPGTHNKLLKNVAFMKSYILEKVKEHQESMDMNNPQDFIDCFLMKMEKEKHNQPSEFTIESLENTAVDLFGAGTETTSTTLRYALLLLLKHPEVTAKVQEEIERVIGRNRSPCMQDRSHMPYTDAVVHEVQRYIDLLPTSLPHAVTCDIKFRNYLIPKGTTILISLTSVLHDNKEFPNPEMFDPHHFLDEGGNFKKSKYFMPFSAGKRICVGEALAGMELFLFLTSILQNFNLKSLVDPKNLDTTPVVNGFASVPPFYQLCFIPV

[18] = target: T5, CYP2C9; experiment: Inhibition of recombinant human CYP2C9 expressed in insect cell microsomes at 5 uM using Luciferin-H as substrate preincubated for 30 mins followed by NADPH addition measured after 30 mins by luminometric method; type: ADME; details: probe Luciferin-H
[19] = target: T5, CYP2C9; experiment: Inhibition of recombinant human CYP2C9 expressed in insect cell microsomes at 10 uM using Luciferin-H as substrate preincubated for 30 mins followed by NADPH addition measured after 30 mins by luminometric method; type: ADME; details: probe Luciferin-H
[20] = target: T1, CYP2C19; experiment: Inhibition of recombinant human CYP2C19 expressed in insect cell microsomes at 1 uM using Luciferin-H EGE as substrate preincubated for 20 mins followed by NADPH addition measured after 30 mins by luminometric method; type: ADME; details: probe Luciferin-H EGE
[21] = target: T1, CYP2C19; experiment: Inhibition of recombinant human CYP2C19 expressed in insect cell microsomes at 5 uM using Luciferin-H EGE as substrate preincubated for 20 mins followed by NADPH addition measured after 30 mins by luminometric method; type: ADME; details: probe Luciferin-H EGE
[22] = target: T6, CYP2D6 (Homo sapiens, UniProt P10635); experiment: Inhibition of recombinant human CYP2D6 expressed in insect cell microsomes at 1 uM using Luciferin-ME EGE as substrate preincubated for 30 mins followed by NADPH addition measured after 45 mins by luminometric method; type: ADME; details: probe Luciferin-ME EGE
T6 sequence (P10635 whole entry): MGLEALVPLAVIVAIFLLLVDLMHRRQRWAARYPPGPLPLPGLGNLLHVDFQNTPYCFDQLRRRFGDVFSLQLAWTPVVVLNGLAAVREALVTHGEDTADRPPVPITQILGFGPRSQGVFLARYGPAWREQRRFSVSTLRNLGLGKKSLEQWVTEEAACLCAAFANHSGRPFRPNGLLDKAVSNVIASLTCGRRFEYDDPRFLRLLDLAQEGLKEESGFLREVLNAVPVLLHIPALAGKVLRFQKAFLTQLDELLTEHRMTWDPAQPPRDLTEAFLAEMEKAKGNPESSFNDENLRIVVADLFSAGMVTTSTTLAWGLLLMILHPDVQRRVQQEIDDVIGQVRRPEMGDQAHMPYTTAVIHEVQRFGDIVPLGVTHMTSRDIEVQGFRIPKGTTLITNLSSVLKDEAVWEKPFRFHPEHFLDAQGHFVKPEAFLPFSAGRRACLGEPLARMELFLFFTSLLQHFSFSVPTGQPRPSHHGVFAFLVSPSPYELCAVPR

[23] = target: T6, CYP2D6; experiment: Inhibition of recombinant human CYP2D6 expressed in insect cell microsomes at 5 uM using Luciferin-ME EGE as substrate preincubated for 30 mins followed by NADPH addition measured after 45 mins by luminometric method; type: ADME; details: probe Luciferin-ME EGE
[24] = target: T6, CYP2D6; experiment: Inhibition of recombinant human CYP2D6 expressed in insect cell microsomes at 10 uM using Luciferin-ME EGE as substrate preincubated for 30 mins followed by NADPH addition measured after 45 mins by luminometric method; type: ADME; details: probe Luciferin-ME EGE
[25] = Drug recovery in mouse plasma at 37 degC after 120 mins by HPLC-MS/MS analysis; type: ADME, cell-free; details: read-out: Drug recovery
[26] = Stability of the compound in mouse deproteinized plasma at 37 degC after 120 mins by HPLC-MS/MS analysis; type: ADME, cell-free; details: 2 h
[27] = in vitro; details: human, Caco-2; remark: listed apart in the source
Description: Apparent permeability of the compound from basolateral to apical side in human Caco2 cells assessed as drug recovery after 120 mins by LC-MS/MS analysis

[28] = Half life in cryopreserved mouse liver microsomes at 1 uM after 120 mins by HPLC-MS/MS analysis; type: ADME, microsome
[29] = Intrinsic clearance in mouse liver […] per million cells at 1 uM after 120 mins by HPLC-MS/MS analysis; type: ADME; details: 2 h
[30] = Intrinsic clearance in mouse liver microsomes at 1 uM after 120 mins by HPLC-MS/MS analysis; type: ADME, microsome; details: read-out: CLH

- Papp A→B at 2 h [1]: 30.9 ×10⁻⁶ cm/s
- recovery at 2 h [2]: 70%
Compound: CC(C)NCC(O)COc1cccc2ccccc12 (stereo not given) [PROPRANOLOL]

- inhibition at 0.5 h, 10 µM [3]: 84%
Compound: Cc1c(C)c2c(c(C)c1O)CCC(C)(COc1ccc(CC3SC(=O)NC3=O)cc1)O2 (stereo not given) [TROGLITAZONE]

- IC50 [4]: 50 nM
- IC50 [6]: > 100 µM
- Activity [7]: Not Active
- IC50 [8]: 50 nM
Compound: CS(=O)(=O)c1ccc(C(=O)Nc2ccc(Cl)c(-c3ccccn3)c2)c(Cl)c1 [VISMODEGIB]
- Activity [5]: Dose-dependent effect
- IC50 [5]: 45 µM
- Activity [6]: Dose-dependent effect
- inhibition [9]: Dose-dependent effect

- IC50 [4]: 670 nM
- IC50 [6]: 27 µM
- fold change (FC) [10]: 3
- inhibition at 0.5 h, 1 µM [11]: 2%
- inhibition at 10 min, 1 µM [12]: 4%
- inhibition at 0.5 h, 5 µM [13]: 5%
- inhibition at 0.5 h, 10 µM [14]: 1%
- inhibition at 10 min, 5 µM [15]: 7%
- inhibition at 10 min, 10 µM [16]: 15%
- inhibition at 0.5 h, 1 µM [17]: 63%
- inhibition at 0.5 h, 5 µM [18]: 69%
- inhibition at 0.5 h, 10 µM [19]: 71%
- inhibition at 0.5 h, 1 µM [20]: 25%
- inhibition at 0.5 h, 5 µM [21]: 33%
- inhibition at 0.5 h, 10 µM [3]: 27%
- inhibition at 0.75 h, 1 µM [22]: 18%
- inhibition at 0.75 h, 5 µM [23]: 1%
- inhibition at 0.75 h, 10 µM [24]: 6%
- remaining at 2 h [25]: 4.9%
- Stability [26]: Stable
- Activity [7]: Not Active
- recovery at 2 h [2]: 65.4%
- recovery at 2 h [27]: 42.9%
- IC50 [8]: 100 nM
Compound: COc1cc(C(=O)NC(=S)Nc2ccc(C)c(NC(=O)c3ccc(-c4ccc(F)cc4)cc3)c2)cc(OC)c1OC
- Activity [5]: Dose-dependent effect
- IC50 [5]: 7.5 µM
- Activity [6]: Dose-dependent effect
- inhibition [9]: Dose-dependent effect

- fold change (FC) [10]: 8.5
Compound: COc1ccc(CCN(C)CCCC(C#N)(c2ccc(OC)c(OC)c2)C(C)C)cc1OC (stereo not given)

- half-life at 1 µM [28]: 4.84 min
- CLH [29]: 477 µL/min
- CLint scaled at 1 µM [30]: 1260 mL/min/kg
Compound: CCOc1ccc2ccc(=O)oc2c1 [ETHOXYCOUMARIN]

- recovery at 2 h [2]: 94.7%
- recovery at 2 h [27]: 102%
Compound: CC(C)NCC(O)COc1ccc(CC(N)=O)cc1 (stereo not given) [ATENOLOL]
